This is an account of results in patent publication US20110237538A1, “TREATMENT OF LYSOSOMAL STORAGE DISORDERS AND OTHER PROTEOSTATIC DISEASES” (SUMMIT CORPORATION PLC, priority 2008, published 2011).

Molecules are shown by their SMILES.

The target of one assay is T1, wild type (wt) beta-glucocerebrosidase (Homo sapiens, UniProt P04062).
T1 construct: The lysates were used as a source for wild type (wt) beta-glucocerebrosidase; endogenous in cells; host or cells: HL60 (ECACC No. 98070106) lysate
T1 sequence (P04062 40-536): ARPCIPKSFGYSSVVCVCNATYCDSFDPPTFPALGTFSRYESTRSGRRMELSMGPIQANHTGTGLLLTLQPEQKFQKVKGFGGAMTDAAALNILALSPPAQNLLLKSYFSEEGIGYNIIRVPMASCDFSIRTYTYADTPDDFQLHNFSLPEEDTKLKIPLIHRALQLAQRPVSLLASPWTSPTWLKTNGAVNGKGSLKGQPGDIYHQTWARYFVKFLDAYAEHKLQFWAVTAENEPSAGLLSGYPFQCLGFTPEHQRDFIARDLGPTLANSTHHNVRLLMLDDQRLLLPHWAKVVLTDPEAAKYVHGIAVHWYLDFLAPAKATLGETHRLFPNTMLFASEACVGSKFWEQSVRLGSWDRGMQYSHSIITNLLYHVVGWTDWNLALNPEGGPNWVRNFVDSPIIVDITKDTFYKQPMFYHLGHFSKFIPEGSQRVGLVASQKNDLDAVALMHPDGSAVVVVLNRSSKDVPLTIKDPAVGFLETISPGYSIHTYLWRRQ
Nature of the assay: beta-glucocerebrosidase activity assay in HL60 lysate (4MU-β-D-glc).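 Note: fluorometric read-out of 4MU liberated from the substrate (ex 360 nm, em 450 nm) after 37 °C incubation, reaction stopped with sodium carbonate.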 The format is biochemical. The conditions noted are these: at a concentration of 100 μM, 0.5 mM 4MU-β-D-glc.
In general, inhibition refers to the drop in the measured response relative to a control, in per cent. Read a high inhibition as a strong effect. Regarding `CN1C[C@H](O)[C@@H](O)[C@H](O)[C@H]1CO` [Compound 3, (2R,3R,4R,5S)-2-(hydroxymethyl)-1-methylpiperidine-3,4,5-triol], the inhibition at 100 µM was over 50%.

The compound `CC(O)CC[C@@H]1[C@@H](O)C[C@@H]2[C@H](O)[C@H](O)[C@@H](CO)N21` (stereo partly drawn) [Compound 66, (1S,2R,3R,5R,6S,7aR)-5-(3-hydroxybutyl)-3-(hydroxymethyl)hexahydro-1H-pyrrolizine-1,2,6-triol] showed an inhibition at 100 µM of over 50%.

Regarding `OCC1OC(CO)(O[C@H]2[C@H](O)[C@H](O)[C@H](CO)N[C@@H]2CO)C(O)C1O` (stereo partly drawn) [Compound 77, (2S,3R,4R,5R,6R)-5-(3,4-dihydroxy-2,5-bis(hydroxymethyl)tetrahydrofuran-2-yloxy)-2,6-bis(hydroxymethyl)piperidine-3,4-diol], the inhibition at 100 µM was over 50%.

Compound `O[C@H]1[C@H](O)[C@@H](O)CN2CC[C@H](O)[C@H]12` [Compound 104, (1S,6S,7R,8R,8aR)-octahydroindolizine-1,6,7,8-tetraol] gave an inhibition at 100 µM of over 50%.

`OCC1OC(O[C@@H]2[C@@H](O)[C@H](O)[C@]3(O)CC[C@H]2N3)C(O)C(O)C1O` (stereo partly drawn) [Compound 105, (1R,2S,3S,4S,5R)-4-(3,4,5-trihydroxy-6-(hydroxymethyl)tetrahydro-2H-pyran-2-yloxy)-8-azabicyclo[3.2.1]octane-1,2,3-triol] registered an inhibition at 100 µM of over 50%.

In turn, `OC[C@H]1[C@@H](O)[C@H](O)[C@H]2[C@H](O)[C@@H](O)CN21` [Compound 129, (1R,2R,3S,6S,7S,7aR)-3-(hydroxymethyl)hexahydro-1H-pyrrolizine-1,2,6,7-tetraol] returned an inhibition at 100 µM of over 50%.

In the case of `OC[C@@H]1NC[C@H](O)[C@H]1O` [Compound 160, (2S,3S,4S)-2-(hydroxymethyl)pyrrolidine-3,4-diol], the inhibition at 100 µM was over 50%.

`OC[C@@H]1CNC[C@@H](O)[C@H]1O` [Compound 219, (3R,4S,5S)-5-(hydroxymethyl)piperidine-3,4-diol]: the inhibition at 100 µM is over 50%.

`O=C(CCCCO)CCCCCCC[C@@H](O)[C@H]1N[C@H](CO)[C@@H](O)[C@@H]1O` [Compound 226, (R)-13-((2R,3R,4R,5R)-3,4-dihydroxy-5-(hydroxymethyl)pyrrolidin-2-yl)-1,13-dihydroxytridecan-5-one] registered an inhibition at 100 µM of over 50%.

As for `CCCCNC(=O)C1N[C@@H](C)[C@H](O)[C@@H](O)[C@H]1O` (stereo partly drawn) [Compound 265, (3S,4R,5S,6S)-N-butyl-3,4,5-trihydroxy-6-methylpiperidine-2-carboxamide], the inhibition at 100 µM was over 50%.

`C[C@@H]1NC(C(=O)NCc2ccccc2)[C@H](O)[C@H](O)[C@H]1O` (stereo partly drawn) [Compound 267, (3S,4R,5S,6S)-N-benzyl-3,4,5-trihydroxy-6-methylpiperidine-2-carboxamide] came in with an inhibition at 100 µM of over 50%.

In turn, `OC[C@H]1CNC[C@@H](O)[C@@H]1O` [Compound 279, (3R,4R,5R)-5-(Hydroxymethyl)-3,4-piperidinediol] registered an inhibition at 100 µM of over 50%.

In turn, `OC[C@@H]1[C@@H](O)[C@H](O)[C@@H](O)CN1CCCOc1ccccc1` [Compound 288, (2R,3R,4R,5S)-2-(hydroxymethyl)-1-(3-phenoxypropyl)piperidine-3,4,5-triol] gave an inhibition at 100 µM of over 50%.

Compound `OC[C@H]1[C@@H](O)[C@H](O)CN1CC1CCCCC1` [Compound 320, (2S,3R,4R)-1-(cyclohexylmethyl)-2-(hydroxymethyl)pyrrolidine-3,4-diol] had an inhibition at 100 µM of over 50%.

Take `OC[C@@H]1[C@@H](O)[C@H](O)CN1CCCOc1ccccc1` [Compound 349, (2R,3R,4R)-2-(hydroxymethyl)-1-(3-phenoxypropyl)pyrrolidine-3,4-diol]: the inhibition at 100 µM was over 50%.

Turning to `CCCCN1C[C@H](CO)[C@@H](O)[C@H](O)C1` [Compound 419, (3R,4R,5R)-1-butyl-5-(hydroxymethyl)piperidine-3,4-diol], the inhibition at 100 µM was over 50%.

Consider `OCCN1C[C@H](CO)[C@@H](O)[C@H](O)C1` [Compound 420, (3R,4R,5R)-1-(2-hydroxyethyl)-5-(hydroxymethyl)piperidine-3,4-diol], for which the inhibition at 100 µM was over 50%.

For the compound `O=C(O)CN1C[C@H](CO)[C@@H](O)[C@H](O)C1` [Compound 450, 2-((3R,4R,5R)-3,4-dihydroxy-5-(hydroxymethyl)piperidin-1-yl)acetic acid], the inhibition at 100 µM was over 50%.

The compound `O=C(O)CN1C[C@@H](CO)[C@H](O)[C@@H](O)C1` [Compound 451, 2-((3S,4S,5S)-3,4-dihydroxy-5-(hydroxymethyl)piperidin-1-yl)acetic acid] registered an inhibition at 100 µM of over 50%.

Compound `CCCCCCCCCN1[C@H](CO)[C@@H](O)[C@H](O)[C@H]1CO` [Compound 555, (2R,3R,4R,5R)-2,5-bis(hydroxymethyl)-1-nonylpyrrolidine-3,4-diol] returned an inhibition at 100 µM of over 50%.

For the compound `OCCCCCCCCCN1[C@H](CO)[C@@H](O)[C@H](O)[C@H]1CO` [Compound 557, (2R,3R,4R,5R)-2,5-bis(hydroxymethyl)-1-(9-hydroxynonyl)pyrrolidine-3,4-diol], the inhibition at 100 µM is over 50%.

Regarding `CCCCCCCCCN1C[C@@H](O)[C@H](O)[C@H]1CO` [Compound 568, (2R,3R,4R)-2-(hydroxymethyl)-1-nonylpyrrolidine-3,4-diol], the inhibition at 100 µM is over 50%.

In the case of `OCCN1C[C@@H](CO)[C@H](O)[C@@H](O)C1` [Compound 640, (3S,4S,5S)-1-(2-hydroxyethyl)-5-(hydroxymethyl)piperidine-3,4-diol], the inhibition at 100 µM was over 50%.

In turn, `OC[C@@H]1CNC[C@H](O)[C@H]1O` [Compound 641, (3S,4S,5S)-5-(hydroxymethyl)piperidine-3,4-diol] registered an inhibition at 100 µM of over 50%.

Turning to `O=C(NC[C@@H]1[C@@H](O)[C@@H](O)CN1Cc1ccc(-c2ccccc2)cc1)c1ccccc1` [Compound 649, N-(((2R,3R,4S)-1-(biphenyl-4-ylmethyl)-3,4-dihydroxypyrrolidin-2-yl)methyl)benzamide], the inhibition at 100 µM was over 50%.

Turning to `NC[C@H]1[C@@H](O)[C@@H](O)CN1Cc1ccc(-c2ccccc2)cc1` [Compound 686, (2S,3R,4S)-2-(aminomethyl)-1-(biphenyl-4-ylmethyl)pyrrolidine-3,4-diol], the inhibition at 100 µM was over 50%.

Compound `O=C(NC[C@H]1[C@@H](O)[C@@H](O)CN1Cc1ccc(-c2ccccc2)cc1)c1ccc(-c2ccccc2)cc1` [Compound 701, N-(((2S,3R,4S)-1-(biphenyl-4-ylmethyl)-3,4-dihydroxypyrrolidin-2-yl)methyl)biphenyl-4-carboxamide] registered an inhibition at 100 µM of over 50%.

On to `CCCCCCCCCN1C[C@@H](O)[C@H](O)[C@H](O)[C@@H](O)C1` [Compound 736, (3R,4S,5R,6S)-1-nonylazepane-3,4,5,6-tetraol], for which the inhibition at 100 µM was over 50%.

For the compound `O[C@H]1[C@H](O)[C@H](O)CN(CCCCCOCC23CC4CC(CC(C4)C2)C3)C[C@H]1O` [Compound 766, (3R,4R,5R,6R)-1-(5-(adamantan-1-yl-methoxy)-pentyl)azepane-3,4,5,6-tetraol], the inhibition at 100 µM is over 50%.

For the next assay, the target named is T2, wild type (wt) lysosomal alpha-glucosidase (Homo sapiens, UniProt P10253).
T2 construct: The lysates were used as a source for wild type (wt) lysosomal alpha-glucosidase; endogenous in cells; host or cells: HL60 (ECACC No. 98070106) lysate
The experiment in a line: alpha-glucosidase activity assay in HL60 lysate (4MU-α-D-glc).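 Note: fluorometric rate of 4MU product release read at 360 nm excitation and 450 nm emission, reactions run at 37 °C in citric phosphate buffer.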 The format is biochemical. The conditions noted are these: at a concentration of 100 uM, 0.5 mM 4MU-α-D-glc, pH 4.5.
In the case of `CN1C[C@H](O)[C@@H](O)[C@H](O)[C@H]1CO` [Compound 3, (2R,3R,4R,5S)-2-(hydroxymethyl)-1-methylpiperidine-3,4,5-triol], the inhibition at 100 µM is over 50%.

`O[C@H]1[C@H](O)[C@@H](O)CN2CC[C@H](O)[C@H]12` [Compound 104, (1S,6S,7R,8R,8aR)-octahydroindolizine-1,6,7,8-tetraol] showed an inhibition at 100 µM of over 50%.

The compound `OC[C@@H]1NC[C@H](O)[C@H]1O` [Compound 160, (2S,3S,4S)-2-(hydroxymethyl)pyrrolidine-3,4-diol] came in with an inhibition at 100 µM of over 50%.

`OC[C@@H]1[C@@H](O)[C@H](O)[C@@H](O)CN1CCCOc1ccccc1` [Compound 288, (2R,3R,4R,5S)-2-(hydroxymethyl)-1-(3-phenoxypropyl)piperidine-3,4,5-triol] had an inhibition at 100 µM of over 50%.
